Measurements published in PMC12846815, “Structural basis for iterative methylation by a cobalamin-dependent radical S-adenosylmethionine enzyme in cystobactamids biosynthesis” (Proceedings of the National Academy of Sciences of the …, 2026).

Key:
[1] = molecular target: T1, ccCysS (Corallococcus sp. CA054B, UniProt A0A3A8HCN5); test: X-ray crystal structure, […] Å; type: binding; conditions: active site, one conformer; with Met, 5′dA, Cbl and [Fe4S4]; anoxic, pH 6.0
T1 construct: gene D7V80_23740; codon-optimised gene in pSUMO, N-terminal SUMO tag cleaved with Ulp1; E. coli BL21(DE3) with pDB1282 and pBAD42-BtuCEDFB; monomer; TLS groups span residues 5 to 704
T1 sequence (A0A3A8HCN5 1-645): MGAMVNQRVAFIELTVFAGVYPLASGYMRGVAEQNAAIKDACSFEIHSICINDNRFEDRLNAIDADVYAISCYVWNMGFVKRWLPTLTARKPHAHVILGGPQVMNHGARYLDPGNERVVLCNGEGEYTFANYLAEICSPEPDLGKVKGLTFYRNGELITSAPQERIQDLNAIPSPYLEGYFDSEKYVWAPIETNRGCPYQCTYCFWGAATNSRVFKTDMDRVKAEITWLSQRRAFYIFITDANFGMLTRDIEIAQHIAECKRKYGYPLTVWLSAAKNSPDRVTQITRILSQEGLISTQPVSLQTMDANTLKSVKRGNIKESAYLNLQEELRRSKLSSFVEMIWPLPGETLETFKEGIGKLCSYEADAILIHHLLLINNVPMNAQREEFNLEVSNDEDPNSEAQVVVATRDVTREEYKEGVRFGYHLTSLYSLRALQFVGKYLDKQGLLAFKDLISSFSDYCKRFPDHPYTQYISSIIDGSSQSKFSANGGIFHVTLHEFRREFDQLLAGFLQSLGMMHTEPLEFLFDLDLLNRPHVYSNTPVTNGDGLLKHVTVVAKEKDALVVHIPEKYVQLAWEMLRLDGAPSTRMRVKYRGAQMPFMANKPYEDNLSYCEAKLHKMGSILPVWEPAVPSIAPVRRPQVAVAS

[2] = molecular target: T2, cbCysS (Cystobacter sp. Cbv34, UniProt A0A0H4NV78); test: LC-MS product quantification; type: biochemical; conditions: 500 µM SAM, 2 mM Ti(III) citrate, pH 7.5, room temperature
T2 construct: gene cysS; codon-optimised gene in pSUMO, N-terminal SUMO tag cleaved with Ulp1; E. coli BL21(DE3) with pDB1282 and pBAD42-BtuCEDFB; monomer
T2 sequence (A0A0H4NV78 1-642): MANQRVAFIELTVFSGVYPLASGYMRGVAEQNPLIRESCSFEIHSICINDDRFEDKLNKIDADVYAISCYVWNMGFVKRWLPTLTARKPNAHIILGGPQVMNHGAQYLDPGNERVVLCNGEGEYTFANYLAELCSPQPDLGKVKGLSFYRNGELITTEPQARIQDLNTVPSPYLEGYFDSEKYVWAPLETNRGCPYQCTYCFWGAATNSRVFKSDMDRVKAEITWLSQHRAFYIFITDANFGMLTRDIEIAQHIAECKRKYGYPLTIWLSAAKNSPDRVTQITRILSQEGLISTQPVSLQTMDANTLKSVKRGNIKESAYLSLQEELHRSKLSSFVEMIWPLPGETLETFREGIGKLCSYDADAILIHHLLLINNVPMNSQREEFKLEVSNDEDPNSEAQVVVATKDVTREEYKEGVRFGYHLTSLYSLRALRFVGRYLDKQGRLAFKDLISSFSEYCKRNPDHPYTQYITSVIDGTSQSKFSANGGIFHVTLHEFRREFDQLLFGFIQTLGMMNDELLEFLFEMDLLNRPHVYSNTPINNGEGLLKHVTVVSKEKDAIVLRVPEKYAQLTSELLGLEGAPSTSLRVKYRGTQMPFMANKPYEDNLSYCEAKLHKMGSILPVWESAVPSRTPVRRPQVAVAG

[3] = molecular target: T3, ccCysS (Corallococcus sp. CA054B, UniProt A0A3A8HCN5, W271A); test: LC-MS product quantification; type: biochemical; conditions: 500 µM SAM, 2 mM Ti(III) citrate, pH 7.5, room temperature
T3 construct: gene D7V80_23740; codon-optimised gene in pSUMO, N-terminal SUMO tag cleaved with Ulp1; E. coli BL21(DE3) with pDB1282 and pBAD42-BtuCEDFB; monomer; TLS groups span residues 5 to 704
T3 sequence (A0A3A8HCN5 1-645 W271A): T1 sequence (A0A3A8HCN5 1-645)

[4] = molecular target: T1, ccCysS; test: X-ray crystal structure, […] Å; type: binding; conditions: active site, two conformers; with Met, 5′dA, Cbl and [Fe4S4]; anoxic, pH 6.0
[5] = molecular target: T1, ccCysS; test: LC-MS product quantification; type: biochemical; conditions: 500 µM SAM, 2 mM Ti(III) citrate, pH 7.5, room temperature
[6] = molecular target: T4, ccCysS (Corallococcus sp. CA054B, UniProt A0A3A8HCN5, F485Y); test: LC-MS product quantification; type: biochemical; conditions: 500 µM SAM, 2 mM Ti(III) citrate, pH 7.5, room temperature
T4 construct: gene D7V80_23740; codon-optimised gene in pSUMO, N-terminal SUMO tag cleaved with Ulp1; E. coli BL21(DE3) with pDB1282 and pBAD42-BtuCEDFB; monomer; TLS groups span residues 5 to 704
T4 sequence (A0A3A8HCN5 1-645 F485Y): T1 sequence (A0A3A8HCN5 1-645)

[7] = molecular target: T5, ccCysS (Corallococcus sp. CA054B, UniProt A0A3A8HCN5, F485W); test: LC-MS product quantification; type: biochemical; conditions: 500 µM SAM, 2 mM Ti(III) citrate, pH 7.5, room temperature
T5 construct: gene D7V80_23740; codon-optimised gene in pSUMO, N-terminal SUMO tag cleaved with Ulp1; E. coli BL21(DE3) with pDB1282 and pBAD42-BtuCEDFB; monomer; TLS groups span residues 5 to 704
T5 sequence (A0A3A8HCN5 1-645 F485W): T1 sequence (A0A3A8HCN5 1-645)

[8] = molecular target: T6, ccCysS (Corallococcus sp. CA054B, UniProt A0A3A8HCN5, F485L); test: LC-MS product quantification; type: biochemical; conditions: 500 µM SAM, 2 mM Ti(III) citrate, pH 7.5, room temperature
T6 construct: gene D7V80_23740; codon-optimised gene in pSUMO, N-terminal SUMO tag cleaved with Ulp1; E. coli BL21(DE3) with pDB1282 and pBAD42-BtuCEDFB; monomer; TLS groups span residues 5 to 704
T6 sequence (A0A3A8HCN5 1-645 F485L): T1 sequence (A0A3A8HCN5 1-645)

Row | Compound | X-ray crystal structure, 2.00 Å [1] | LC-MS product quantification [2] | LC-MS product quantification [3] | X-ray crystal structure, 1.75 Å [4] | LC-MS product quantification [5] | LC-MS product quantification [6] | LC-MS product quantification [7] | LC-MS product quantification [8]
1 | CCOc1cc(C(=O)OCCNC(=O)CCNC(=O)[C@H](O)C(C)(C)CO)ccc1N [OEt, OEt substrate] | Structures with the OMe or OEt substrates have well-defined substrate electron densities |  |  |  |  |  |  | 
2 | COc1cc(C(=O)OCCNC(=O)CCNC(=O)[C@H](O)C(C)(C)CO)ccc1N [OMe, OMe substrate] |  | In reactions using the OMe substrate, only the OEt and O^iPr products are detected | changed to Ala, the variant shows much lower activity across all three methylations | Structures with the OMe or OEt substrates have well-defined substrate electron densities |  |  |  | 
3 | CC(C)Oc1cc(C(=O)OCCNC(=O)CCNC(=O)[C@H](O)C(C)(C)CO)ccc1N [OiPr, O^iPr substrate] |  | The O^sBu and O^tBu products are observed only when starting from the O^iPr substrate |  |  | The O^sBu and O^tBu products are observed only when starting from the O^iPr substrate | F485Y and F485W yield fewer overall methylated products | F485Y and F485W yield fewer overall methylated products | The F485L variant, less bulky than wild-type (WT) ccCysS, produces methylated products in roughly equal amounts
